Laboratory results: PubChem BioAssay AID2060346 (Molecular Pharmacology Branch, DTP, NCI, 2025)
Several values for one entry are separate records, joined by “and”; a condition that tells them apart may be missing. Identical values can stand only once.

Test system: CN0375-F725-PDC multi-cell spheroids, viability
Assay: Anticancer human tumor CN0375-F725-PDC patient-derived colon carcinoma cell line growth inhibition [TAK]
Settings: for viability, T/C: stronger effect = lower value; active means viability on the fitted dose curve at most 10% of control; inactive means the rest
Source text: Combinatorial screen of targeted agents with TAK-243 and ipatasertib in multi-cell type tumor spheroids
A high-throughput screen of multi-cell type tumor spheroids was designed to identify active combinations of targeted small molecules and TAK-243 or ipatasertib. Complex spheroids include a stromal component modeled by human endothelial cells (HUVEC) and fibroblasts modeled by human mesenchymal stem cells (MSCs). The concentration ranges selected for each drug and investigational agent were based upon clinically achievable concentrations if the clinical Cmax of the agent was known.
Compounds. The drugs and investigational agents: TAK-243 (785004), ipatasertib (767898), everolimus (733504), selumetinib (741078), bortezomib (756655), trametinib (758246), ixazomib (758254), vemurafenib (761431), dabrafenib (764134), sapanisertib (764658), alpelisib (765974), and copanlisib (816437), were obtained from the National Cancer Institute (NCI) Developmental Therapeutics Program Chemical Repository. The FDA-approved anticancer drug set is available from the NCI Developmental Therapeutics Program. […] The stock solutions were prepared in dimethyl sulfoxide (DMSO, Sigma-Aldrich, St. Louis, MO, cat. D2650) at 800-fold the tested concentration and stored at -70 degrees C prior to their use. All drugs and investigational agents were tested over a range starting from a high concentration at or near the clinical Cmax and decreasing in half-log increments. If the clinical Cmax for an agent had not been determined, the highest concentration tested was 10 microM.
NCI60 Cell Culture. NCI60 cell lines were obtained from the NCI Developmental Therapeutics Program Tumor Repository. For each lot of cells, the Repository performed Applied Biosystems AmpFLSTR Identifiler testing with PCR amplification to confirm consistency with the published Identifier STR profile for each cell line. Cells were kept in continuous culture for no more than 20 passages. The optimal seeding densities for each of the cell lines at each time point assessed were determined prior to performing the concentration response studies. Briefly, the NCI60 human tumor lines were grown as monolayers in RPMI 1640 medium supplemented with 10% FBS and 2 mmol/L L-glutamine.
An additional 2 lines were from the NCI60 cell line panel including melanomas, MALME-3M and SK-MEL-2. Pooled donor human umbilical vein endothelial cells (HUVEC, Lonza, cat. CC-2519) and human mesenchymal stem cells (hMSC, Lonza, cat. PT-2501) were purchased from Lonza (Walkersville, MD).
PDMR cell lines were grown in complete medium (DC medium): Dulbecco's modified Eagle's medium (DMEM)/F12 supplemented with 5% fetal bovine serum (FBS), 2 mM L-glutamine, 100 U/mL penicillin and 100 µg/ml streptomycin, 0.4 µg/ml hydrocortisone, 10 ng/ml epidermal growth factor (EGF) recombinant human protein, 24 µg/mL adenine, and 0.1 mg/mL primocin. During culture from frozen stock vials, PDMR cells were cultured in the same medium containing 10 µM Y-27632 (see Table 3). The PDCs were cultured in complete DMEM/F12 media without 10 microM Y-27632 dihydrochloride for at least two passages prior to the screen. The pooled donor HUVEC and hMSC were cultured in endothelial cell growth medium 2 (PromoCell, Heidelberg, Germany, cat. C-22011) and mesenchymal stem cell growth medium 2 (PromoCell, cat. C-28009), respectively. For all experiments, HUVEC and hMSC were used at passages </=5.
For the pre-screen, cell seeding densities were determined from a titration spanning the range from 5,000 to 313 cells per well. The mct-spheroids including 60% malignant cells, 25% HUVEC and 15% MSC dispensed as a mixture into U-bottom Ultra-Low Attachment 384-well plates (Corning, NY)
High-throughput Drug Combination Screening.
Prior to their inoculation into 384-well plates, malignant cells, HUVEC, and hMSC were removed from T flasks using TrypLE express (Thermo Fisher Scientific, cat. 12605036) and harvested by centrifugation for 5 min at 233 x g. […]

[1] = curve of first compound, second compound 0.3 µM
[2] = curve of first compound, second compound 0.949 µM
[3] = curve of first compound, second compound 3 µM
[4] = curve of first compound, second compound 9.49 µM
[5] = curve of first compound, second compound 30 µM
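Further: spheroids exposed to drugs for seven days.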

CCCS(=O)(=O)Nc1ccc(F)c(C(=O)c2c[nH]c3ncc(-c4ccc(Cl)cc4)cc23)c1F + CC(C)NCC(C(=O)N1CCN(c2ncnc3c2C(C)CC3O)CC1)c1ccc(Cl)cc1
3750 nM: IC50 [5]
> 100000 nM: IC50 [1] | IC50 [2] | IC50 [3]
8150 nM: IC50 [4]
inactive: viability, T/C (second compound 0.3 µM, first compound 0.316 µM) 105% | viability, T/C (second compound 0.3 µM, first compound 1 µM) 120% | viability, T/C (second compound 0.3 µM, first compound 3.16 µM) 106% | viability, T/C (second compound 0.3 µM, first compound 10 µM) 66.1% | viability, T/C (second compound 0.3 µM, first compound 31.6 µM) 26.5% | viability, T/C (second compound 0.3 µM, first compound 100 µM) 121% | viability, T/C (second compound 0.949 µM, first compound 0.316 µM) 101% | viability, T/C (second compound 0.949 µM, first compound 1 µM) 109% | viability, T/C (second compound 0.949 µM, first compound 3.16 µM) 99.8% | viability, T/C (second compound 0.949 µM, first compound 10 µM) 58.8% | viability, T/C (second compound 0.949 µM, first compound 31.6 µM) 10.6% | viability, T/C (second compound 0.949 µM, first compound 100 µM) 105% | viability, T/C (second compound 3 µM, first compound 0.316 µM) 98.2% | viability, T/C (second compound 3 µM, first compound 1 µM) 110% | viability, T/C (second compound 3 µM, first compound 3.16 µM) 89% | viability, T/C (second compound 3 µM, first compound 10 µM) 54.7% | viability, T/C (second compound 3 µM, first compound 31.6 µM) 9.13% | viability, T/C (second compound 3 µM, first compound 100 µM) 99.8% | viability, T/C (second compound 9.49 µM, first compound 0.316 µM) 95.7% | viability, T/C (second compound 9.49 µM, first compound 1 µM) 95.5% | viability, T/C (second compound 9.49 µM, first compound 3.16 µM) 79.8% | viability, T/C (second compound 9.49 µM, first compound 10 µM) 24.1% | viability, T/C (second compound 9.49 µM, first compound 31.6 µM) 27.2% | viability, T/C (second compound 9.49 µM, first compound 100 µM) 79.5% | viability, T/C (second compound 30 µM, first compound 0.316 µM) 86% | viability, T/C (second compound 30 µM, first compound 1 µM) 82.2% | viability, T/C (second compound 30 µM, first compound 3.16 µM) 54.7% | viability, T/C (second compound 30 µM, first compound 10 µM) 13.9% | viability, T/C (second compound 30 µM, first compound 31.6 µM) 2.73% | viability, T/C (second compound 30 µM, first compound 100 µM) 52.6%

CC(C)NCC(C(=O)N1CCN(c2ncnc3c2C(C)CC3O)CC1)c1ccc(Cl)cc1 (stereo not given)
> 30000 nM: IC50 (compound alone, run of 02/28/2020) | IC50 (compound alone, run of 03/19/2020)
inactive: viability, T/C (compound 0.3 µM) 97.1% [middle of 10 runs] | viability, T/C (compound 0.949 µM) 93.7% [middle of 10 runs] | viability, T/C (compound 3 µM) 91.4% [middle of 10 runs] | viability, T/C (compound 9.49 µM) 84.7% [middle of 10 runs] | viability, T/C (compound 30 µM) 83.7% [middle of 10 runs]

CC(C)CC(NC(=O)CNC(=O)c1cc(Cl)ccc1Cl)B1OC(=O)CC(CC(=O)O)(C(=O)O)O1 (stereo not given)
inactive: viability, T/C (compound 0.000316 µM) 113% and 106% | viability, T/C (compound 0.001 µM) 112% and 104% | viability, T/C (compound 0.00316 µM) 103% and 102% | viability, T/C (compound 0.01 µM) 111% and 109% | viability, T/C (compound 0.0316 µM) 78.3% and 75.7% | viability, T/C (compound 0.1 µM) 23.4% and 22.6%
57.2 nM and 55.2 nM: IC50 (curve of compound)

CC(C)n1nc(-c2ccc3oc(N)nc3c2)c2c(N)ncnc21
inactive: viability, T/C (compound 0.000316 µM) 109% and 106% | viability, T/C (compound 0.001 µM) 105% and 101% | viability, T/C (compound 0.00316 µM) 91.7% and 93.4% | viability, T/C (compound 0.01 µM) 85.5% and 83.8% | viability, T/C (compound 0.0316 µM) 73.1% and 76.7% | viability, T/C (compound 0.1 µM) 58.9% and 61.4%
> 100 nM: IC50 (curve of compound)

CCCS(=O)(=O)Nc1ccc(F)c(C(=O)c2c[nH]c3ncc(-c4ccc(Cl)cc4)cc23)c1F
> 100000 nM: IC50 (curve of compound)
inactive: viability, T/C (compound 0.316 µM) 113% and 115% | viability, T/C (compound 1 µM) 122% | viability, T/C (compound 3.16 µM) 114% and 109% | viability, T/C (compound 10 µM) 75.1% and 65.5% | viability, T/C (compound 31.6 µM) 118% and 111% | viability, T/C (compound 100 µM) 101% and 111%

CC(C)CC(NC(=O)CNC(=O)c1cc(Cl)ccc1Cl)B1OC(=O)CC(CC(=O)O)(C(=O)O)O1 (stereo not given) + CC(C)NCC(C(=O)N1CCN(c2ncnc3c2C(C)CC3O)CC1)c1ccc(Cl)cc1
43.2 nM: IC50 [2]
49.3 nM: IC50 [1]
inactive: viability, T/C (second compound 0.3 µM, first compound 0.000316 µM) 102% | viability, T/C (second compound 0.3 µM, first compound 0.001 µM) 104% | viability, T/C (second compound 0.3 µM, first compound 0.00316 µM) 108% | viability, T/C (second compound 0.3 µM, first compound 0.01 µM) 99.4% | viability, T/C (second compound 0.3 µM, first compound 0.0316 µM) 68.4% | viability, T/C (second compound 0.3 µM, first compound 0.1 µM) 20.7% | viability, T/C (second compound 0.949 µM, first compound 0.000316 µM) 102% | viability, T/C (second compound 0.949 µM, first compound 0.001 µM) 99.8% | viability, T/C (second compound 0.949 µM, first compound 0.00316 µM) 102% | viability, T/C (second compound 0.949 µM, first compound 0.01 µM) 98.8% | viability, T/C (second compound 0.949 µM, first compound 0.0316 µM) 60.3% | viability, T/C (second compound 0.949 µM, first compound 0.1 µM) 22.4% | viability, T/C (second compound 3 µM, first compound 0.000316 µM) 91.8% | viability, T/C (second compound 3 µM, first compound 0.001 µM) 101% | viability, T/C (second compound 3 µM, first compound 0.00316 µM) 96.7% | viability, T/C (second compound 3 µM, first compound 0.01 µM) 101% | viability, T/C (second compound 3 µM, first compound 0.0316 µM) 65.9% | viability, T/C (second compound 3 µM, first compound 0.1 µM) 16.4% | viability, T/C (second compound 9.49 µM, first compound 0.000316 µM) 86% | viability, T/C (second compound 9.49 µM, first compound 0.001 µM) 92.5% | viability, T/C (second compound 9.49 µM, first compound 0.00316 µM) 93.4% | viability, T/C (second compound 9.49 µM, first compound 0.01 µM) 93.6% | viability, T/C (second compound 9.49 µM, first compound 0.0316 µM) 48.8% | viability, T/C (second compound 9.49 µM, first compound 0.1 µM) 15.6% | viability, T/C (second compound 30 µM, first compound 0.000316 µM) 77.9% | viability, T/C (second compound 30 µM, first compound 0.001 µM) 91.7% | viability, T/C (second compound 30 µM, first compound 0.00316 µM) 88.2% | viability, T/C (second compound 30 µM, first compound 0.01 µM) 76.2% | viability, T/C (second compound 30 µM, first compound 0.0316 µM) 22.2%
17.5 nM: IC50 [5]
active: viability, T/C (second compound 30 µM, first compound 0.1 µM) 5.95%
45.8 nM: IC50 [3]
30.6 nM: IC50 [4]

CC(=O)Nc1cccc(-n2c(=O)n(C3CC3)c(=O)c3c(Nc4ccc(I)cc4F)n(C)c(=O)c(C)c32)c1
10.6 nM and 11.2 nM: IC50 (curve of compound)
inactive: viability, T/C (compound 94.9 pM) 106% and 100% | viability, T/C (compound 0.0003 µM) 96.5% and 91.6% | viability, T/C (compound 0.000949 µM) 78.1% and 77.9% | viability, T/C (compound 0.003 µM) 67.4% and 64.9% | viability, T/C (compound 0.00949 µM) 52.9% and 52.8% | viability, T/C (compound 0.03 µM) 35.6% and 38.6%
